From patent US20140234502A1, “Treatment of Produce” (Rohm and Haas Company, priority 2009, published 2014)

What was measured:
Format in all cases: in vivo, pear
William's Pears = test: Firmness of William's pears by penetrometer after treatment, non-ambient storage and shelf life; details: South Africa, RA for 8 weeks, ambient for 5 days
From the text: (§1) Pears (Conference, William's/Bartlett, or Packam's) were harvested at maturity for long storage. Number of fruits and replicates were selected according to the size of the chamber in which to apply 1-MCP and according to the statistical design. Airtight containers in the range of 1 cubic meter were used for the application of both 1-MCP and ethylene. 1-MCP was released from SmartFresh™ powder that contained 0.14% 1-MCP by weight (obtained from AgroFresh, Inc.). The amount of that SmartFresh™ powder was chosen to yield the target atmospheric concentration of 1-MCP in the chosen container. For example, the 1-MCP released from 1000 mg of that SmartFresh™ powder in 1 cubic meter yielded 1-MCP concentration in the atmosphere of 625 ppb.
(§2) The chosen amount of SmartFresh™ powder was dissolved in water into a tight flask and shaken until all the powder was dissolved. The flask was then put it into the airtight container and opened, to release the 1-MCP. At the same time of the opening of the 1-MCP flask, ethylene was injected with a syringe into the airtight container. Ethylene was taken from a compressed tank at known concentration: either taken directly or released into a flask. In the latter case the concentration was measured by gas-chromatograph to determine the quantity of volume to inject into the airtight container to get the target concentration.
The exposure to atmosphere containing either 1-MCP alone or 1-MCP and ethylene was done on cold pears (already cooled down to non-ambient storage temperature) within a maximum of 7 days from harvest and lasted 24 hours. At the end of the application, the airtight container was vented for 15 minutes and the fruits were put into RA or CA storage. RA storage was at temperature of −1° C. to 1° C. and at relative humidity of 80% to 98%. […]
(§3) Pears denoted with a single number (e.g., “300”) received 1-MCP treatment with that concentration, in ppb, of 1-MCP in the atmosphere (e.g., 300 ppb) and were not exposed to exogenous ethylene. […] Reported quantity is “firmness” (“F”), the penetrometer force in kgf. […]

Packam's Pears = test: Firmness of Packam's pears by penetrometer after treatment, non-ambient storage and shelf life; details: South Africa, ambient 5 days
From the text: as §1, §2
(§4) The exposure to atmosphere containing either 1-MCP alone or 1-MCP and ethylene was done on cold pears (already cooled down to non-ambient storage temperature) within a maximum of 7 days from harvest and lasted 24 hours. At the end of the application, the airtight container was vented for 15 minutes and the fruits were put into RA or CA storage. RA storage was at temperature of −1° C. to 1° C. and at relative humidity of 80% to 98%. CA storage had the same temperature and humidity of RA storage, had oxygen level of 1% to 3%, by volume based on the volume of the atmosphere and had carbon dioxide level of 0.5% to 2%, by volume based on the volume of the atmosphere.
In addition, samples of pears (from the same orchards from which pears treated with 1-MCP alone or 1-MCP and ethylene were harvested) were put into an airtight container for 24 hours at the temperature as the treated pears in order to reproduce the same environmental conditions. Then they were stored in the same rooms or in separated rooms in the same conditions of RA and CA as the treated pears. […]
as §3

Conference Pears [1] = test: Firmness of Conference pears by penetrometer after treatment, non-ambient storage and shelf life; parameters: key to SW France F (firmness) / Italy F (firmness) / Average F (firmness): penetrometer force in kgf (8 mm probe); details: for ES A F (firmness): farm ES A; for ES B F (firmness): farm ES B; for IT F (firmness): farm IT; for firmness: Example 9, CA 6 months; for Italy F (firmness) / firmness: Italy; for Orchard #1 F (firmness) / Orchard #2 F (firmness) / Orchard #3 F (firmness): Example 11, Spain, RA 3 months
From the text: as §1, §2, §4
In addition, samples of pears (from the same orchards from which pears treated with 1-MCP alone or 1-MCP and ethylene were harvested) were put into an airtight container for 24 hours at the temperature as the treated pears in order to reproduce the same environmental conditions. Then they were stored in the same rooms or in separated rooms in the same conditions of RA and CA as the treated pears. These pears received no exposure to 1-MCP, exogenous ethylene, or any combination thereof, and they are labeled “control” below.
Length of non-ambient storage at present commercial temperature and storage regime was generally of 2-4 months in RA and 6 months in CA, unless otherwise specified, according to normal commercial practice.
All pears received the same progression of non-ambient storage followed by exposure to ambient conditions (“shelf life”).
Pears denoted with a single number (e.g., “300”) received 1-MCP treatment with that concentration, in ppb, of 1-MCP in the atmosphere (e.g., 300 ppb) and were not exposed to exogenous ethylene. Pears denoted with two numbers (e.g. “300+600”) were treated with both that concentration in ppb of 1-MCP and that concentration in ppb of ethylene (e.g., 300 ppb of 1-MCP and 600 ppb of ethylene). The firmness of pears was tested using commercial penetrometers with test probe of 8 mm diameter. Reported quantity is “firmness” (“F”), the penetrometer force in kgf.

Conference Pears [2] = test: Color rating of Conference pears; details: ambient 5-8 days; for Italy color / SW France color: scale of 0 (green) to 5 (yellow)
From the text: as §1, §2, §4
Pears were tested for firmness, as described above, and were rated for color on a scale of 0 (green) to 5 (yellow).

Conference Pears [3] = test: Inspection of Conference pears for rot, bruising and internal browning
From the text: as §1, §2, §4
After RA storage, pears were exposed to ambient for the number of days shown below and then inspected for rot, bruising, and internal browning (“I.B.”). Results shown are the percentage of pears having the disorder.
Pears from SW France were examined as in Example 7, and the percent disordered fruit was as follows: […]

Conference Pears [4] = test: Examination of Conference pears for scald; details: Example 9, CA 6 months, Italy
From the text: as §1, §2, §4
Pears from Italy (the same pears whose firmness is reported herein above in Example 5) were examined for scald after exposure to ambient conditions for the number of days shown below.

[5] = Example 3, RA 3 months, ambient 5 to 8 days
[6] = Example 4, CA 6 months, ambient 5 to 8 days
[7] = Example 5, RA 3 months, ambient 5-8 days
[8] = Example 6, CA 6 months, ambient 5-8 days
[9] = Example 7, RA 4 months, SW France, 13 ambient days
[10] = Example 8, CA 6 months, ambient 13 days, SW France

**Q.** Which “farm 1 F (firmness)” value (William's Pears; farm 1) does the source give for `CC1=CC1` [300(C), 1-MCP] here?
**A.** 6.7 kgf

**Q.** And the “farm 2 F (firmness)” value (William's Pears; farm 2)?
**A.** 5.6 kgf

**Q.** What about the “farm 3 F (firmness)” value (William's Pears; farm 3) of the same compound?
**A.** 7.2 kgf

**Q.** What about the “8 weeks F (firmness)” value (Packam's Pears; RA for 8 weeks) of the same compound?
**A.** 6.8 kgf

**Q.** And the “12 weeks F (firmness)” value (Packam's Pears; RA for 12 weeks)?
**A.** 5.8 kgf

**Q.** And the “AV F (firmness), average of the results from the seven farms” value (Conference Pears [1]; [5])?
**A.** 4.6 kgf

**Q.** And the “ES A F (firmness)” value (Conference Pears [1]; [5])?
**A.** 2.5 kgf

**Q.** And the “ES B F (firmness)” value (Conference Pears [1]; [5])?
**A.** 3.4 kgf

**Q.** What about the “FR A F (firmness)” value (Conference Pears [1]; Example 3, RA 3 months, ambient 5 to 8 days, farm FR A) of the same compound?
**A.** 5.3 kgf

**Q.** And the “FR B F (firmness)” value (Conference Pears [1]; Example 3, RA 3 months, ambient 5 to 8 days, farm FR B)?
**A.** 5.1 kgf

**Q.** What about the “IT F (firmness)” value (Conference Pears [1]; [5]) of the same compound?
**A.** 4.8 kgf

**Q.** And the “NL A F (firmness)” value (Conference Pears [1]; Example 3, RA 3 months, ambient 5 to 8 days, farm NL A)?
**A.** 5.3 kgf

**Q.** What about the “NL B F (firmness)” value (Conference Pears [1]; Example 3, RA 3 months, ambient 5 to 8 days, farm NL B) of the same compound?
**A.** 5.6 kgf

**Q.** And the “Av F (firmness), average of the results from the six farms” value (Conference Pears [1]; [6])?
**A.** 4.1 kgf

**Q.** And the “ES A F (firmness)” value (Conference Pears [1]; [6])?
**A.** 4.2 kgf

**Q.** What about the “ES B F (firmness)” value (Conference Pears [1]; [6]) of the same compound?
**A.** 3.3 kgf

**Q.** What about the “FR F (firmness)” value (Conference Pears [1]; Example 4, CA 6 months, ambient 5 to 8 days, farm FR) of the same compound?
**A.** 4.7 kgf

**Q.** And the “IT F (firmness)” value (Conference Pears [1]; [6])?
**A.** 4.7 kgf

**Q.** What about the “NL A F (firmness)” value (Conference Pears [1]; Example 4, CA 6 months, ambient 5 to 8 days, farm NL A) of the same compound?
**A.** 4.4 kgf

**Q.** And the “NL B F (firmness)” value (Conference Pears [1]; Example 4, CA 6 months, ambient 5 to 8 days, farm NL B)?
**A.** 3.4 kgf

**Q.** And the “Italy F (firmness)” value (Conference Pears [1]; [7])?
**A.** 4.8

**Q.** What about the “SW France F (firmness)” value (Conference Pears [1]; [7]) of the same compound?
**A.** 5.1

**Q.** What about the “Italy F (firmness)” value (Conference Pears [1]; [8]) of the same compound?
**A.** 4.7

**Q.** What about the “SW France F (firmness)” value (Conference Pears [1]; [8]) of the same compound?
**A.** 4.7

**Q.** And the “Average F (firmness)” value (Conference Pears [1]; Example 6, CA 6 months, ambient 5-8 days, average of SW France and Italy)?
**A.** 4.7

**Q.** What about the firmness (Conference Pears [1]; 0 ambient days) of the same compound?
**A.** 6.5 kgf

**Q.** What about the firmness (Conference Pears [1]; 7 ambient days) of the same compound?
**A.** 4.7 kgf

**Q.** And the “Average F (firmness), average of the two orchards” value (Conference Pears [1]; Example 10, RA 3 months, ambient 5 days)?
**A.** 4.48 kgf

**Q.** And the “NL A F (firmness)” value (Conference Pears [1]; Example 10, RA 3 months, ambient 5 days, NL A)?
**A.** 5.59 kgf

**Q.** And the “NL B F (firmness)” value (Conference Pears [1]; Example 10, RA 3 months, ambient 5 days, NL B)?
**A.** 3.37 kgf

**Q.** What about the “Orchard #1 F (firmness)” value (Conference Pears [1]; 0 days ambient) of the same compound?
**A.** 5.72 kgf

**Q.** And the “Orchard #2 F (firmness)” value (Conference Pears [1]; 0 days ambient)?
**A.** 5.92 kgf

**Q.** What about the “Orchard #3 F (firmness)” value (Conference Pears [1]; 0 days ambient) of the same compound?
**A.** 5.97 kgf

**Q.** And the “Orchard #1 F (firmness)” value (Conference Pears [1]; 7 days ambient)?
**A.** 5.84 kgf

**Q.** And the “Orchard #2 F (firmness)” value (Conference Pears [1]; 7 days ambient)?
**A.** 5.53 kgf

**Q.** What about the “Orchard #3 F (firmness)” value (Conference Pears [1]; 7 days ambient) of the same compound?
**A.** 5.44 kgf

**Q.** What about the “Orchard #1 F (firmness)” value (Conference Pears [1]; 12 days ambient) of the same compound?
**A.** 5.55 kgf

**Q.** What about the “Orchard #2 F (firmness)” value (Conference Pears [1]; 12 days ambient) of the same compound?
**A.** 5.68 kgf

**Q.** And the “Orchard #3 F (firmness)” value (Conference Pears [1]; 12 days ambient)?
**A.** 5.62 kgf

**Q.** And the Italy color (Conference Pears [2]; Example 5, RA 3 months)?
**A.** 1.9

**Q.** What about the “SW France color” value (Conference Pears [2]; Example 5, RA 3 months) of the same compound?
**A.** 2.95

**Q.** And the Italy color (Conference Pears [2]; Example 6, CA 6 months)?
**A.** 2.4

**Q.** And the “SW France color” value (Conference Pears [2]; Example 6, CA 6 months)?
**A.** 2.7

**Q.** What about the Average color (Conference Pears [2]; Example 6, CA 6 months, average of SW France and Italy, scale 0 (green) to 5 (yellow)) of the same compound?
**A.** 2.6

**Q.** What about the “percentage of pears having internal browning (I.B.)” value (from here on “percentage … (I.B.)”) (Conference Pears [3]; Example 7, RA 4 months, Loire, France, 11 ambient days) of the same compound?
**A.** 0 percentage

**Q.** What about the “percentage … (I.B.)” value (Conference Pears [3]; Example 7, RA 4 months, Loire, France, 13 ambient days) of the same compound?
**A.** 0 percentage

**Q.** What about the “percentage … (I.B.)” value (Conference Pears [3]; Example 7, RA 4 months, Loire, France, 15 ambient days) of the same compound?
**A.** 0 percentage

**Q.** What about the “percentage of pears having bruising” value (Conference Pears [3]; [9]) of the same compound?
**A.** 0 percentage

**Q.** What about the “percentage … (I.B.)” value (Conference Pears [3]; [9]) of the same compound?
**A.** 0 percentage

**Q.** What about the “percentage of pears having rot” value (Conference Pears [3]; [9]) of the same compound?
**A.** 0 percentage

**Q.** What about the “percent disordered fruit: I.B.” value (Conference Pears [3]; [10]) of the same compound?
**A.** 34%

**Q.** And the “percent disordered fruit: rot” value (Conference Pears [3]; [10])?
**A.** 12%

**Q.** What about the percent with scald (Conference Pears [4]; 0 ambient days) of the same compound?
**A.** 0%

**Q.** And the percent with scald (Conference Pears [4]; 7 ambient days)?
**A.** 1%
